Reference: patent US6592893B1, “Transdermal patch and topical compositions comprising propylnorapomorphine” (priority 1998, dated 2003)

Columns and labels:
[1] = in vitro cell permeation study with guinea-pig skin (Type III patch); assay type: in vitro ADME
Procedure: Then, three particular non-limiting examples of the pharmaceutical composition used to form the matrix of a Type III patch will be illustrated (FIG. 3). The Type III patch, containing a matrix made up of these three types of formulations, will then be “tested” on guinea-pig skin, to analyse the permeation of the active principle, both with regard to the accumulation of active principle over 48 hours (FIG. 4) and with regard to the flow (also over 48 hours, FIG. 5).

[2] = activity compared with APO; conditions: greater than that of APO
Procedure: For this reason, when said compounds are given at suitable doses over 24 hours, effects which are rather more beneficial than those of APO are obtained.

[3] = toxicity compared with APO
[4] = half-life compared with APO
[5] = accelerated stability test of the patch formulation; assay type: physicochemical; conditions: with antioxidant (sodium metabisulphite), 15 days at 40° C. and 75% RH
[6] = i.v., s.c., i.m., rectal, sublingual or intranasal route; cited from earlier work
[7] = continuous subcutaneous infusion, 2-5 mg/hour; cited from earlier work

Row | SMILES | skin permeability [1] | activity relative to APO [2] | toxicity relative to APO [3] | half-life relative to APO [4] | chemical stability in the formulation of the patch [5] | latent period (attack) [6] | local side effect at the infusion site [7]
1 | CCCN1CCc2cccc3c2[C@H]1Cc1ccc(O)c(O)c1-3.Cl [Compound (1), R(−)-propylnorapomorphine hydrochloride] | sufficient | 10 times | lower | greater | demonstrated | – | –
2 | CN1CCc2cccc3c2[C@H]1Cc1ccc(O)c(O)c1-3 [Apomorphine] | – | – | – | – | – | about 15 ′ | subcutaneous granulomas form around the infusion site
3 | CCCN1CCc2cccc3c2[C@@H]1Cc1ccc(O)c(O)c1-3.Cl [Compound (2), S(+)-propylnorapomorphine hydrochloride] | – | 10 times | lower | greater | – | – | –
